Measured values reported in BindingDB's records for doi:10.1039/c2dt30198a (Shanxi University, 2012).
pIC50: −log10 of the molar value.

Key:
[1] = biological target: T1, Tyrosine-protein phosphatase non-receptor type 2 (Homo sapiens, UniProt P17706); test: PTP inhibition assay; conditions: pH 7.2
T1 sequence (P17706 whole entry): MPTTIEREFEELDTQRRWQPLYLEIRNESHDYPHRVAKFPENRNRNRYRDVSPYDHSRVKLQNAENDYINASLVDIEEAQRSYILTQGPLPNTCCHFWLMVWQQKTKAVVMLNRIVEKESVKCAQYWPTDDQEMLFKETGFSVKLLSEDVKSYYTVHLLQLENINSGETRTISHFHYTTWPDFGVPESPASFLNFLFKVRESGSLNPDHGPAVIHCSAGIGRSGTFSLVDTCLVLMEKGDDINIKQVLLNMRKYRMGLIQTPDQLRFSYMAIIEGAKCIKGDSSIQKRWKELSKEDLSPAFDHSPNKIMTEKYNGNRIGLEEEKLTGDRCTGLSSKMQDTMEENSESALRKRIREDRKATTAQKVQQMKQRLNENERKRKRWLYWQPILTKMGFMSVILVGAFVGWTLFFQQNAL
Experimental: (§1) The assays were performed in 20 mM MOPS buffer, pH 7.2, containing 50 mM NaCl and 2 mM GSH. Compounds were dissolved in DMSO and diluted to various concentration gradients and further diluted for activity evaluations. Ten microliter of complex was mixed to 82 L enzyme solution for 30 min, followed by addition of 2 L of pNPP (0.1 M) substrate to initiate the reaction. After 30 min at RT, 6 L of 2 M NaOH was added to terminate the reaction. The absorbance was measured at 405 nm.

[2] = biological target: T2, Tyrosine-protein phosphatase non-receptor type 11 (Homo sapiens, UniProt Q06124); test: PTP inhibition assay; conditions: pH 7.2
T2 sequence (Q06124 whole entry): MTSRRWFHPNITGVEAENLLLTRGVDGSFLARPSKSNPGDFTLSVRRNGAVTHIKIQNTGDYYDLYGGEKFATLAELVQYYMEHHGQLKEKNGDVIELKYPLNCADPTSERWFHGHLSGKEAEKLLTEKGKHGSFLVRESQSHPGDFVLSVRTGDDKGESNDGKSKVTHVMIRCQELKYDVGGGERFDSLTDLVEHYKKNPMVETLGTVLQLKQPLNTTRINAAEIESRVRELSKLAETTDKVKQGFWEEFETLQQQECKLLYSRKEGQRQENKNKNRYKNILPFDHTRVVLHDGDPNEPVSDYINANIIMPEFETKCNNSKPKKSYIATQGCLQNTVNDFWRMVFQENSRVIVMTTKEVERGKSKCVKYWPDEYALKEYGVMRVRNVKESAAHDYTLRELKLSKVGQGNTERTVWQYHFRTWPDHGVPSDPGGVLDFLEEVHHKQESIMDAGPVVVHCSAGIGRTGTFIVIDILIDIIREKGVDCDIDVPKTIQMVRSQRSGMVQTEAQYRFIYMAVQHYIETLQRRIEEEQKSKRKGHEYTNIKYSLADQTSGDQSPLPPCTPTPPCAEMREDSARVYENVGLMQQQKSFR
Experimental: as §1

[3] = biological target: T3, Tyrosine-protein phosphatase non-receptor type 1 (Homo sapiens, UniProt P18031); test: PTP inhibition assay; conditions: pH 7.2
T3 sequence (P18031 whole entry): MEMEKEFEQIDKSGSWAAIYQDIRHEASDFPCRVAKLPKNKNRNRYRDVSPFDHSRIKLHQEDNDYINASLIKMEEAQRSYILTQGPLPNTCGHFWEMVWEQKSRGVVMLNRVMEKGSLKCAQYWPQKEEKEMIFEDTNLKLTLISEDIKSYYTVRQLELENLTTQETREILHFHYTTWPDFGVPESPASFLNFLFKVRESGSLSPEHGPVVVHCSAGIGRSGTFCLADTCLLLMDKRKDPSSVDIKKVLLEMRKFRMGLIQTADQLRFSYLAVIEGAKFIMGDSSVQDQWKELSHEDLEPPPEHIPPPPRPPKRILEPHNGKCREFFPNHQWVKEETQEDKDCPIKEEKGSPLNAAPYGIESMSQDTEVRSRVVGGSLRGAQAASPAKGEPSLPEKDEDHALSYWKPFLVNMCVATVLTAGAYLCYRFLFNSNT
Experimental: as §1

[4] = biological target: Tyrosine-protein phosphatase non-receptor type 6 (Homo sapiens, UniProt P29350); test: PTP inhibition assay; conditions: pH 7.2
Sequence of Tyrosine-protein phosphatase non-receptor type 6 (P29350 whole entry): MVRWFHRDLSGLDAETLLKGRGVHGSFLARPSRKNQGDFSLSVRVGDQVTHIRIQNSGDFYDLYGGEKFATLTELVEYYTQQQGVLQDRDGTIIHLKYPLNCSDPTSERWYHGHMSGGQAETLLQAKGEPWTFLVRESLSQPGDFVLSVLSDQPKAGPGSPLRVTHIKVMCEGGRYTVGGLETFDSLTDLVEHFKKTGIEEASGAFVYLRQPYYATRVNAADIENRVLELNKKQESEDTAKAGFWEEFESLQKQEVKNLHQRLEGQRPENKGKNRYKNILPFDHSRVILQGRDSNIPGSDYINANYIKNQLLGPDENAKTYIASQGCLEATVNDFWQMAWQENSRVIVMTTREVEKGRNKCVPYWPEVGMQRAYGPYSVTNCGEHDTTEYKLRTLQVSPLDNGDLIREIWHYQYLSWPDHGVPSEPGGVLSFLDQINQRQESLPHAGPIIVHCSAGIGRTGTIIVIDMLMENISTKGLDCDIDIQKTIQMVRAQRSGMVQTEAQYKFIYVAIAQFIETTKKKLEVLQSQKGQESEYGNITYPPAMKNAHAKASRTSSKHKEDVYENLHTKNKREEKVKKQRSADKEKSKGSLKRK
Experimental: as §1

[5] = biological target: Tyrosine-protein phosphatase non-receptor type 9 (PTP-MEG2, Homo sapiens) (UniProt P43378); test: The assays were performed in 20 mM MOPS buffer, pH 7.2, containing 50 mM NaCl and 2 mM GSH. Compounds were dissolved in DMSO and diluted to various concentration gradients and further diluted for activity evaluations. Ten microliter of complex was mixed to 82 L enzyme solution for 30 min, followed by addition of 2 L of pNPP (0.1 M) substrate to initiat
Sequence of Tyrosine-protein phosphatase non-receptor type 9 (PTP-MEG2, Homo sapiens) (P43378 whole entry, looked up): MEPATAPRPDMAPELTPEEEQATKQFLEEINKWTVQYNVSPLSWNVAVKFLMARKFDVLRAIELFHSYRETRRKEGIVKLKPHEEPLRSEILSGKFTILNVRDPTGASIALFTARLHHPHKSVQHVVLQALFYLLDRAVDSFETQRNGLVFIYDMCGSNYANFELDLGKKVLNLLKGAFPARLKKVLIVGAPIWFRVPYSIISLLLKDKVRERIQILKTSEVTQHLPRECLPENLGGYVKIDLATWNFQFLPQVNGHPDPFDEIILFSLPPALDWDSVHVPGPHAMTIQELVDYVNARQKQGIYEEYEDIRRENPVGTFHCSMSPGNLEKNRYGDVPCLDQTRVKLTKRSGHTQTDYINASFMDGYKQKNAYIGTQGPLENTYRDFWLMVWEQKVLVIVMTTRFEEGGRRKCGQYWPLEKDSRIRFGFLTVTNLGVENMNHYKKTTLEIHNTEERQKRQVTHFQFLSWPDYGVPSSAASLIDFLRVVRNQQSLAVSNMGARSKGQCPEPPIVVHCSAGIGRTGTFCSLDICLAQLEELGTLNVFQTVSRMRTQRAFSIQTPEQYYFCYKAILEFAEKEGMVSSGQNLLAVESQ

| Substance | pIC50 [1] | pIC50 [2] | pIC50 [3] | pIC50 [4] | pIC50 [5] |
| --- | --- | --- | --- | --- | --- |
| Bis(4-bromo-2-((phenylimino)methyl)phenolate)-oxovanadium(IV) (4) | 5.72 | 4.46 | 6.16 | 5.19 | 5.54 |
| Bis(4-chloro-2-((phenylimino)methyl)phenolate)-oxovanadium(IV) (3) | 5.08 | 5.64 | 6.10 | 6.00 | 5.44 |
| Bis(4-nitro-2-((phenylimino)methyl)phenolate)-oxovanadium(IV) (5) | 5.85 | 5.59 | 6.03 | 5.60 | 5.49 |
